# Assay results published in US20250108119A1, “NOVEL STEROID PAYLOADS, STEROID LINKERS, ADCs CONTAINING AND USE THEREOF” (IMMUNEXT, INC., priority 2021, published 2025).
# Entries after “also recorded” stand apart in the source; their conditions may differ.
# Assays:
# [1] = tested on: transferred naïve CD4 T cells from hVISTA KI mice; assay: T cell transfer colitis model; assay type: in vivo, Rag1-/- mice
# Experimental: After >21 days, animals slowly start to lose weight and decreases in circulating naïve T cells are observed. In this model, the ADC targets only the transferred cells while the free GC can act on both transferred and host cells.
# In EXPERIMENT 1, mice were treated with INX234P at 10 mg/Kg starting on day 0 and then once a week. […] In EXPERIMENT 1 treatment was initiated on day 0 (prophylactic) and terminated on day 61, whereas in EXPERIMENT 2 treatment was initiated on day 21 (or therapeutic) and remains ongoing at the time of this filing.
# In both experiments, all treatments were administered once a week.
# For EXPERIMENT 1, INX234P treatment was initiated on day 0 (or prophylactic) after naïve CD4 T cell transfer and terminated on day 61.
# Naïve CD4 T cells were isolated from hVISTA KI spleen using an EasySep™ Mouse Naïve CD4+ T cell Isolation kit from StemCell (catalog #19765) following manufacturer instruction.
# Following the protocol of Ostanin et al (2008), […] naïve CD45RB+, CD4+ T cells were injected i.p. on day 0
# […] of antibody cocktail (see table on the right) was directly added to […] of blood. After 30 min incubation at room temperature (RT), 600 ml BD FACS lysis buffer was added to the sample. After 30 min incubation at RT, samples were spun at 550 rcf for 5 min, washed once in PBS, and then resuspended in a fixed volume of PBS. […]
# [2] = tested on: steroid responsive genes in bone (Fkpb5, RANKL, ddit4, Fam107a); assay: Steroid responsive gene transcription in bone (RNAseq); assay type: in vivo, mouse; conditions: Dex 2 mg/Kg i.p., 2h
# Excerpt: In the figure Fkpb5 is shown on the left, RANKL the middle left, ddit4 the middle right and Fam107a on the extreme right.
# [3] = Payload accumulation in cynomolgus tissues (LC-MS/MS); conditions: single i.v.; INX234P 10 mg/kg, dexamethasone 2 mg/kg
# [4] = tested on: steroid responsive genes in bone; assay: RNAseq of mouse bones after treatment; conditions: INX231P 10 mg/Kg i.p. 20h (hVISTA KI); Dex 2 mg/Kg 2h (C57BI/6)
# [5] = Plasma corticosterone after repeated treatment; assay type: in vivo, hVISTA KI mice; conditions: Dex 2 or 0.2 mg/Kg daily for 4 days; INX201J 10 or 3 mg/Kg (0.2 or 0.06 mg/Kg of payload) on days 1, 3 and 4
# Experimental: On day 5, mice were bled and their corticosterone levels assessed by ELISA.
# The experiment was performed in female hVISTA KI mice. […] A control group was included that received daily PBS injections. On day 5, mice were bled and their plasma corticosterone levels assessed by ELISA.
# The ELISA was conducted following the manufacturer's included protocol using Arbor Assays (cat #K014-H5) Corticosterone 5 pack ELISA Kit.
smiles,measurement,setting,value
"C[C@@H]1C[C@H]2[C@@H]3CCC4=CC(=O)C=C[C@]4(C)[C@@]3(F)[C@@H](O)C[C@]2(C)[C@@]1(O)C(=O)CO [Dex, dexamethasone]",mice that had to be sacrificed,"[1]; EXPERIMENT 1: high Dex (2 mg/Kg), 2 out of 10",20%
same,median survival,"[1]; EXPERIMENT 1: once a week day 0 to day 61, unconjugated INX234 10 mg/Kg, low Dex 0.2 mg/Kg",72.5 days
same,impact on steroid responsive genes in bone,[2],significantly impacted
same,accumulated compound in tissues at 24h (ng of compound/g of tissue),[3],little accumulated free dexamethasone at 24h in any tissue
same,FKBP5 in bone (RNAseq),[4],robust FKBP5 induction
same,basal plasma corticosterone levels on day 5,[5],Dex at 2 mg/Kg dramatically decreased basal corticosterone levels; also recorded: only limited though significant impact at 0.2 mg/Kg
